According to patent publication US20240228458A1, “PYRIMIDINE DERIVATIVE HAVING PROTEIN KINASE INHIBITORY ACTIVITY, AND THERAPEUTIC PHARMACEUTICAL COMPOSITION COMPRISING SAME” (THERAPEX CO., LTD., priority 2021, published 2024):

Legend:
Format in all cases: cell-based
[1] = system: Ba/F3 cells expressing L858R/T790M (EGFR-LT); assay: Growth inhibition (GI50) of Ba/F3 cells expressing L858R/T790M (EGFR-LT), Celltiter glo
Summary of the method: (§1)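 Steps: plate engineered Ba/F3 cells (100,000 cells/ml); wait 4 h; add compound as a 4-fold, 10-point dilution series made from 2 mM stock, DMSO 0.5%; incubate 72 h at 37 °C under 5% CO2; measure ATP-based viability with CellTiter-Glo; calculate GI50.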

[2] = system: Ba/F3 cells expressing L858R/T790M/C797S (EGFR-LTC); assay: Growth inhibition (GI50) of Ba/F3 cells expressing L858R/T790M/C797S (EGFR-LTC), Celltiter glo
Summary of the method: as §1

[3] = system: Ba/F3 cells expressing EGFR-wt; assay: Growth inhibition (GI50) of Ba/F3 cells expressing EGFR-wt, Celltiter glo
Summary of the method: as §1

[4] = system: Ba/F3 cells expressing del19/T790M (EGFR-DT); assay: Growth inhibition (GI50) of Ba/F3 cells expressing del19/T790M (EGFR-DT), Celltiter glo
Summary of the method: as §1

[5] = system: Ba/F3 cells expressing del19/T790M/C797S (EGFR-DTC); assay: Growth inhibition (GI50) of Ba/F3 cells expressing del19/T790M/C797S (EGFR-DTC), Celltiter glo
Summary of the method: as §1

parental Ba/F3 cell line = assay: Growth inhibition (GI50) of the parental Ba/F3 cell line (not introduced with EGFR variants), Celltiter glo; conditions: parental Ba/F3 cells
Summary of the method: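 Parental Ba/F3 cells (100,000 cells/ml) were treated with 10-point, 4-fold compound dilutions (0.5% DMSO; top stock 2 mM) for 72 h at 37 °C, 5% CO2. Viability was read by CellTiter-Glo; GI50 is the concentration (μM) giving 50% growth inhibition.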

Compound | GI50 ([1]; Mus musculus, BaF3, 72 h) | GI50 ([2]; Mus musculus, BaF3, 72 h) | GI50 ([3]; Mus musculus, BaF3, 72 h) | GI50 ([4]; Mus musculus, BaF3, 72 h) | GI50 ([5]; Mus musculus, BaF3, 72 h) | GI50 ([1]; 72 h) | GI50 ([2]; 72 h) | GI50 ([3]; 72 h) | GI50 ([4]; 72 h) | GI50 ([5]; 72 h) | GI50 (parental Ba/F3 cell line; Mus musculus, BaF3, 72 h) | GI50 (parental Ba/F3 cell line; 72 h)
COc1cc(N2CCC(N3CCCN(C)CC3)CC2)c(C)cc1Nc1ncc(Cl)c(Nc2cc3c(cc2N(C)S(C)(=O)=O)CCO3)n1 [Example 265, N-(6-((5-chloro-2-((2-methoxy-5-methyl-4-(4-(4-methyl-1,4-diazepan-1-yl)piperidin-1-yl)phenyl)amino)pyrimidin-4-yl)amino)-2,3-dihydrobenzofuran-5-yl)-N-methylmethanesulfonamide] | 0.025 to 0.1 µM | 0.025 to 0.1 µM | 0.1 to 0.5 µM | 0.025 to 0.1 µM | 0.025 to 0.1 µM | – | – | – | – | – | 0.5 to 2 µM | –
COc1cc(N2CCC(N3CCN(C4CC4)CC3)CC2)c(C)cc1Nc1ncc(Cl)c(Nc2cc3c(cc2N(C)S(C)(=O)=O)CCO3)n1 [Example 266, N-(6-((5-chloro-2-((4-(4-(4-cyclopropylpiperazin-1-yl)piperidin-1-yl)-2-methoxy-5-methylphenyl)amino)pyrimidin-4-yl)amino)-2,3-dihydrobenzofuran-5-yl)-N-methylmethanesulfonamide] | 0.1 to 0.5 µM | 0.1 to 0.5 µM | 2 to 10 µM | 0.025 to 0.1 µM | 0.5 to 2 µM | – | – | – | – | – | 2 to 10 µM | –
COc1cc(N2CCC(N3CCCC(N(C)C)C3)CC2)c(C)cc1Nc1ncc(Cl)c(Nc2cc3c(cc2N(C)S(C)(=O)=O)CCO3)n1 (stereo not drawn) [Example 267, N-(6-((5-chloro-2-((4-(3-(dimethylamino)-[1,4′-bipiperidin]-1′-yl)-2-methoxy-5-methylphenyl)amino)pyrimidin-4-yl)amino)-2,3-dihydrobenzofuran-5-yl)-N-methylmethanesulfonamide] | 0.025 to 0.1 µM | 0.025 to 0.1 µM | 0.5 to 2 µM | 0.025 to 0.1 µM | 0.1 to 0.5 µM | – | – | – | – | – | 0.5 to 2 µM | –
CN1CCN(C2CCN(c3cc(F)c(Nc4ncc(Cl)c(Nc5cc6c(cc5NS(C)(=O)=O)CCO6)n4)cc3F)CC2)CC1 [Example 268, N-(6-((5-chloro-2-((2,5-difluoro-4-(4-(4-methylpiperazin-1-yl)piperidin-1-yl)phenyl)amino)pyrimidin-4-yl)amino)-2,3-dihydrobenzofuran-5-yl)methanesulfonamide] | 0.025 to 0.1 µM | 0.1 to 0.5 µM | 0.5 to 2 µM | 0.025 to 0.1 µM | 0.1 to 0.5 µM | – | – | – | – | – | 2 to 10 µM | –
COc1cc(N2CCC(N3CCN(C)CC3)CC2)c(Br)cc1Nc1ncc(Cl)c(Nc2cc3c(cc2NS(C)(=O)=O)CCO3)n1 [Example 270, N-(6-((2-((5-Bromo-2-methoxy-4-(4-(4-methylpiperazin-1-yl)piperidin-1-yl)phenyl)amino)-5-chloropyrimidin-4-yl)amino)-2,3-dihydrobenzofuran-5-yl)methanesulfonamide] | 0.001 to 0.025 µM | 0.001 to 0.025 µM | 0.5 to 2 µM | 0.001 to 0.025 µM | 0.001 to 0.025 µM | – | – | – | – | – | 0.5 to 2 µM | –
COc1cc(N2CCC(N3CCN(C)CC3)CC2)c(Br)cc1Nc1ncc(Br)c(Nc2cc3c(cc2NS(C)(=O)=O)CCO3)n1 [Example 271, N-(6-((2-((5-bromo-2-methoxy-4-(4-(4-methylpiperazin-1-yl)piperidin-1-yl)phenyl)amino)-5-bromopyrimidin-4-yl)amino)-2,3-dihydrobenzofuran-5-yl)methanesulfonamide] | 0.001 to 0.025 µM | 0.001 to 0.025 µM | 2 to 10 µM | 0.001 to 0.025 µM | 0.001 to 0.025 µM | – | – | – | – | – | 2 to 10 µM | –
COc1cc(N2CCC(N3CCN(C)CC3)CC2)c(C)cc1Nc1ncc(Cl)c(Nc2ccc3c(c2)N(C)CC3)n1 [Example 272] | 0.5 to 2 µM | 0.5 to 2 µM | 2 to 10 µM | 0.5 to 2 µM | 0.5 to 2 µM | – | – | – | – | – | 2 to 10 µM | –
COc1cc(N2CCC(N3CCN(C)CC3)CC2)c(Cl)cc1Nc1ncc(Cl)c(Nc2ccc3c(c2)N(C)CC3)n1 [Example 273] | 0.1 to 0.5 µM | 0.1 to 0.5 µM | 0.025 to 0.1 µM | 0.5 to 2 µM | 0.5 to 2 µM | – | – | – | – | – | 0.5 to 2 µM | –
Cc1cc(Nc2ncc(Cl)c(Nc3ccc4c(c3)N(C)CC4)n2)c(Cl)cc1N1CCC(N2CCN(C)CC2)CC1 [Example 274] | 0.5 to 2 µM | 0.5 to 2 µM | 0.025 to 0.1 µM | 0.5 to 2 µM | 2 to 10 µM | – | – | – | – | – | 0.5 to 2 µM | –
COc1cc(N2CCC(N3CCCN(C)CC3)CC2)c(C)cc1Nc1ncc(Cl)c(Nc2ccc3c(c2)N(C)CC3)n1 [Example 275] | 0.5 to 2 µM | 0.5 to 2 µM | 0.1 to 0.5 µM | 0.1 to 0.5 µM | 0.5 to 2 µM | – | – | – | – | – | 0.5 to 2 µM | –

Now from value to compound, other results behind:

GI50 ([1]; Mus musculus, BaF3, 72 h) | GI50 ([2]; Mus musculus, BaF3, 72 h) | GI50 ([3]; Mus musculus, BaF3, 72 h) | GI50 ([4]; Mus musculus, BaF3, 72 h) | GI50 ([5]; Mus musculus, BaF3, 72 h) | GI50 ([1]; 72 h) | GI50 ([2]; 72 h) | GI50 ([3]; 72 h) | GI50 ([4]; 72 h) | GI50 ([5]; 72 h) | Compound | GI50 (parental Ba/F3 cell line; Mus musculus, BaF3, 72 h) | GI50 (parental Ba/F3 cell line; 72 h)
0.1 to 0.5 µM | 0.1 to 0.5 µM | 0.5 to 2 µM | 0.025 to 0.1 µM | 0.1 to 0.5 µM | – | – | – | – | – | COc1cc(N2CCC(N3CCN(C)CC3)CC2)c(C)cc1Nc1ncc(Cl)c(Nc2cc3c(cc2NS(C)(=O)=O)CCN3C)n1 [Example 276, N-(6-((5-chloro-2-((2-methoxy-5-methyl-4-(4-(4-methylpiperazin-1-yl)piperidin-1-yl)phenyl)amino)pyrimidin-4-yl)amino)-1-methylindolin-5-yl)methanesulfonamide] | 2 to 10 µM | –
2 to 10 µM | > 10 µM | > 10 µM | 2 to 10 µM | > 10 µM | – | – | – | – | – | Cc1cc(Nc2ncc(Cl)c(Nc3ccc4c(c3)NCC4)n2)c(Cl)cc1N1CCC(N2CCN(C)CC2)CC1 [Example 277] | 2 to 10 µM | –
2 to 10 µM | > 10 µM | > 10 µM | > 10 µM | 2 to 10 µM | – | – | – | – | – | COc1cc(N2CCC(N3CCN(C)CC3)CC2)c(Cl)cc1Nc1ncc(Cl)c(Nc2ccc3c(c2)NCC3)n1 [Example 278] | 2 to 10 µM | –
0.5 to 2 µM | 2 to 10 µM | 2 to 10 µM | 0.1 to 0.5 µM | 2 to 10 µM | – | – | – | – | – | COc1cc(N2CCC(N3CCN(C)CC3)CC2)ccc1Nc1ncc(Cl)c(Nc2ccc3c(c2)NCC3)n1 [Example 279] | 2 to 10 µM | –
0.001 to 0.025 µM | 0.001 to 0.025 µM | 0.025 to 0.1 µM | 0.001 to 0.025 µM | 0.1 to 0.5 µM | – | – | – | – | – | COc1cc(N2CCC(N3CCCC(N(C)C)C3)CC2)c(Br)cc1Nc1ncc(Cl)c(Nc2cc3c(cc2NS(C)(=O)=O)CCO3)n1 (stereo not drawn) [Example 280, N-(6-((2-((5-bromo-4-(3-(dimethylamino)-[1,4′-bipiperidin]-1′-yl)-2-methoxyphenyl)amino)-5-chloropyrimidin-4-yl)amino)-2,3-dihydrobenzofuran-5-yl)methanesulfonamide] | 2 to 10 µM | –
0.001 to 0.025 µM | 0.001 to 0.025 µM | 0.1 to 0.5 µM | 0.001 to 0.025 µM | 0.025 to 0.1 µM | – | – | – | – | – | COc1cc(N2CCC(N3CCCC(N(C)C)C3)CC2)c(Br)cc1Nc1ncc(Br)c(Nc2cc3c(cc2NS(C)(=O)=O)CCO3)n1 (stereo not drawn) [Example 281, N-(6-((5-bromo-2-((5-bromo-4-(3-(dimethylamino)-[1,4′-bipiperidin]-1′-yl)-2-methoxyphenyl)amino)pyrimidin-4-yl)amino)-2,3-dihydrobenzofuran-5-yl)methanesulfonamide] | 0.1 to 0.5 µM | –
0.001 to 0.025 µM | 0.025 to 0.1 µM | 0.1 to 0.5 µM | 0.001 to 0.025 µM | 0.1 to 0.5 µM | – | – | – | – | – | COc1cc(N2CCC(N3CCCN(C)CC3)CC2)c(Br)cc1Nc1ncc(Cl)c(Nc2cc3c(cc2NS(C)(=O)=O)CCO3)n1 [Example 282, N-(6-((2-((5-bromo-2-methoxy-4-(4-(4-methyl-1,4-diazepan-1-yl)piperidin-1-yl)phenyl)amino)-5-chloropyrimidin-4-yl)amino)-2,3-dihydrobenzofuran-5-yl)methanesulfonamide] | 2 to 10 µM | –
0.001 to 0.025 µM | 0.025 to 0.1 µM | 0.1 to 0.5 µM | 0.001 to 0.025 µM | 0.1 to 0.5 µM | – | – | – | – | – | COc1cc(N2CCC(N3CCC(N(C)C)C3)CC2)c(Br)cc1Nc1ncc(Cl)c(Nc2cc3c(cc2NS(C)(=O)=O)CCO3)n1 (stereo not drawn) [Example 283, N-(6-((2-((5-bromo-4-(4-(3-(dimethylamino)pyrrolidin-1-yl)piperidin-1-yl)-2-methoxyphenyl)amino)-5-chloropyrimidin-4-yl)amino)-2,3-dihydrobenzofuran-5-yl)methanesulfonamide] | 2 to 10 µM | –
– | – | – | – | – | 0.1 to 0.5 µM | 0.025 to 0.1 µM | 0.5 to 2 µM | 0.1 to 0.5 µM | 0.025 to 0.1 µM | COc1cc(N2CCC(N3CCN(C)CC3)CC2)c(C)cc1Nc1ncc(Br)c(Nc2ccc3nccnc3c2P(C)(C)=O)n1 [TQB-3804] | – | 0.5 to 2 µM
